Data taken from patent US20120035256A1, “Use of bipolar trans carotenoids as a pretreatment and in the treatment of peripheral vascular disease” (Diffusion Pharmaceuticals LLC, priority 2008, published 2012).

Experiments:
[1] = test system: atherosclerotic plaque formation; settings: rabbits; Gainer and Chisolm, Atherosclerosis 19: 135-138, 1974; cited from earlier work
[2] = test system: focal cerebral ischemia (three vessel occlusion: both CCA and MCA); test: Three vessel occlusion focal cerebral ischemic model; format: in vivo, rat
Description: Preconditioning or pretreating a patient (mammal including human) with a bipolar trans carotenoid is advisable for the following patients: • a patient at risk of an ischemic event; • a patient at risk of forming an embolism or blood clot in the blood vessels, the brain, the heart, or the lungs. The embolism can be fat globules (a fat embolism), air bubbles (an air embolism), talc embolism (often following drug abuse), septic emboli (containing pus and bacteria), atherosclerotic emboli, or amniotic fluid; • a patient at risk of stroke including a patient diagnosed with a blocked carotid artery or having suffered a transient ischemic attack (TIA). In Example 2, TSC was administered intravenously to rats 24 hours before the ischemic injury to the brain occurred. Sufficient time passed between the administration of TSC and the subsequent event so that the TSC would have been cleared from the system. The TSC was dissolved in water, and given over a period of an hour in the following manner. First a 0.1 ml bolus injection was given, then a slow infusion (0.6 ml given over 60 minutes) was given, and finally another 0.1 ml bolus was given. […] The occlusions were removed after 2 hours, and the infarct volume (core plus penumbra) was measured 24 hours later. […]
Trans-sodium crocetinate (0.091 mg/kg total dosage) or vehicle was administered intravenously as follows 1) 0.1 ml injection 2) continuous infusion of TSC at a rate of 0.01 ml/min for the next 60 minutes, and 3) a final 0.1 ml injection of TSC 30 minutes after the cessation of continuous infusion. […] Infarction volumes were measured 24 hours after the ischemic event.
The effects of TSC on focal ischemic injury were examined using adult male Sprague-Dawley rats, each of which weighed between 330 and 370 g. […] Rectal temperature was monitored continuously and maintained at 37° C. with a heating lamp. […]
Focal ischemic was performed by clipping (Sundt AVM microclip No 1, Codman & Shurtleff, Inc., Raynham, Mass.) the MCA at a point distal to the origin of the lenticulostriate arteries. […] After 24 hours, infarct volume was calculated. […]

[3] = Rat transcutaneous oxygen (TCOM) study with 100% oxygen; format: in vivo; settings: male Sprague-Dawley rats breathing 100% oxygen, TSC injected into femoral vein, 45 minutes recording, FIG. 1
Method: For the rat TCOM studies, male Sprague-Dawley rats were used which weighed between 350 and 400 grams each. TCOM electrodes are attached to humans on the chest, on the leg, or on the top of the foot. Using a TCOM apparatus (Radiometer), the electrodes were attached to the shaven skin in the areas of the chest, the abdomen, and the thigh of the rats. Pure oxygen was then administered to the rats. The most reproducible results came from the electrode attached near the rat's abdomen, on the left or right side.
The rats were anesthetized (to quiet them) using IP injections of 80 mg/kg ketamine and 10 mg/kg xylazine.
After the animals were asleep, the abdomen area of the rat was shaved and the TCOM electrode collar was attached to that area. Using Dow Corning high vacuum silicone grease between the electrode collar and the skin was helpful in maintaining a good seal on the rat's skin.
After attaching the TCOM probe, the transcutaneous oxygen tension was then monitored for 30 minutes while the rat breathed room air. The rat was then switched to 100% oxygen and TSC was injected into the femoral vein. The TCOM readings were then recorded for an additional 45 minutes.

SMILES | Atherosclerotic plaque formation over time [1] | Infarct volume (actual, adjusted for swelling) ([2]; 3VO+TSC group, TSC 0.091 mg/kg total i.v. 24 hours before 120 min ischemia, measured 24 hours after the ischemic event, mean±SEM, p<0.01 vs 3VO-only or 3VO+Vehicle) | Reduction in infarct volume, preischemic treatment ([2]; TSC 0.091 mg/kg i.v. 24 hours before ischemic injury, occlusions removed after 2 hours, infarct volume measured 24 hours later) | Reduction in infarct volume, intraischemic treatment ([2]; intraischemic treatment with TSC done previously in this model) | TCOM reading (transcutaneous oxygen tension) [3]
CC(/C=C/C=C(\C)C(=O)O)=C\C=C\C=C(C)\C=C\C=C(/C)C(=O)O [Crocetin] | reduction in atherosclerotic plaque formation | – | – | – | –
CC(/C=C/C=C(\C)C(=O)[O-])=C\C=C\C=C(C)\C=C\C=C(/C)C(=O)[O-].[Na+].[Na+] [TSC, trans sodium crocetinate] | – | 57.7±16.2 mm3 | 65% | 58% | additional increase in the TCOM reading
